Our source for the inhibition values is patent publication US8106055B2, “Substituted amide compounds” (Gruenenthal GmbH, priority 2007, dated 2012).

Structures are written as SMILES.

The target in this assay is T1, serotonin (5-HT) reuptake (Rattus norvegicus, UniProt P31652).
T1 construct: synaptosomes are freshly isolated from areas of the rat brain; from tissue; host or cells: rat brain synaptosomes (P2 fraction)
T1 sequence (P31652 whole entry): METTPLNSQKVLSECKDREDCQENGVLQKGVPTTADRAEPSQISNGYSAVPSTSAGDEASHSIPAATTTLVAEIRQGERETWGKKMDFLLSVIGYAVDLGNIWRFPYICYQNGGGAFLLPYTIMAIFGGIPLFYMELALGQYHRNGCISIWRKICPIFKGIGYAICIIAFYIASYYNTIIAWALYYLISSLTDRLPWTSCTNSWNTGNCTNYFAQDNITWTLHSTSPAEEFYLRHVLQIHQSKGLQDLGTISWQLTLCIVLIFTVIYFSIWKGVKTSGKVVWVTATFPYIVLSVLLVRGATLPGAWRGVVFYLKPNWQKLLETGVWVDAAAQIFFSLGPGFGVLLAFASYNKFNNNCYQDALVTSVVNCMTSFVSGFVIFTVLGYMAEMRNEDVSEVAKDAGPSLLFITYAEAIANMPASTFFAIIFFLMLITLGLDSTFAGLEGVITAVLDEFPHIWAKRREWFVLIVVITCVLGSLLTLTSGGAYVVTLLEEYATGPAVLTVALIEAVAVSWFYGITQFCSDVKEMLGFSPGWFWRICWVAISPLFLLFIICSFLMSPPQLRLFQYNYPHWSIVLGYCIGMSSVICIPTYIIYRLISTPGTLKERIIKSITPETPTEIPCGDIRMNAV
Nature of the assay: Inhibition of serotonin (5HT) reuptake in synaptosomes from rat brain. Format: biochemical. The settings on record: test concentration of 10 μM; read-out: 5-HT (inhibition of reuptake of serotonin, % inhibition). A digest of the protocol:
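Compounds screened at 10 μM and reported as percent inhibition of serotonin uptake. Uptake measured in a freshly prepared P2 synaptosomal fraction from rat brain.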
A word on the inhibition: it is the relative decrease from the control value, in per cent. With `CN(C)C(c1ccccc1)C1CCC(NC(=O)COCCN(C)S(=O)(=O)c2ccc(Cl)cc2Cl)CC1` (stereo not drawn) [Example 33, 2-(2-(2,4-dichloro-N-methylphenylsulfonamido)ethoxy)-N-(4-((dimethylamino)(phenyl)methyl)cyclohexyl)acetamide], the inhibition at 10 µM amounted to 73%.

With `COc1cc(C)c(S(=O)(=O)N2CCN(CCOCC(=O)NC3CCC(C(c4ccccc4)N(C)C)CC3)CC2)c(C)c1C` (stereo not drawn) [Example 20, N-(4-((dimethylamino)(phenyl)methyl)cyclohexyl)-2-(2-(4-(4-methoxy-2,3,6-trimethylphenylsulfonyl)piperazin-1-yl)ethoxy)acetamide], the inhibition at 10 µM was found to be 96%.

Regarding `COc1cc(C)c(S(=O)(=O)N2CCC(CCOCC(=O)NCC3CCC(C(c4ccccc4)N(C)C)CC3)CC2)c(C)c1C` (stereo not drawn) [Example 146, N-((4-((dimethylamino)(phenyl)methyl)cyclohexyl)methyl)-2-(2-(1-(4-methoxy-2,3,6-trimethylphenylsulfonyl)piperidin-4-yl)ethoxy)acetamide], the inhibition at 10 µM stood at 95%.

As to `COc1ccc(S(=O)(=O)N2CCC(OCC(=O)NC3CCC(C(c4cccs4)N(C)C)CC3)C2)cc1OC` (stereo not drawn) [Example 155, 2-(1-(3,4-dimethoxyphenylsulfonyl)pyrrolidin-3-yloxy)-N-(4-((dimethylamino)(thiophen-2-yl)methyl)cyclohexyl)acetamide], the inhibition at 10 µM is 87%.

`COc1cc(C)c(S(=O)(=O)N2CCC(OCC(=O)NCC3CCC(C(c4ccccc4)N(C)C)CC3)CC2)c(C)c1C` (stereo not drawn) [Example 143, N-((4-((dimethylamino)(phenyl)methyl)cyclohexyl)methyl)-2-(1-(4-methoxy-2,3,6-trimethylphenylsulfonyl)piperidin-4-yloxy)acetamide]: the inhibition at 10 µM is 93%.

On to `Cc1cc(C)c(S(=O)(=O)N2CCC(OCC(=O)NCC3CCC(C(c4cccs4)N(C)C)CC3)C2)c(C)c1` (stereo not drawn) [Example 27, N-((4-((dimethylamino)(thiophen-2-yl)methyl)cyclohexyl)methyl)-2-(1-(mesitylsulfonyl)pyrrolidin-3-yloxy)acetamide], for which the inhibition at 10 µM stood at 84%.

On to `Cc1cc(C)c(S(=O)(=O)N2CCC(OCC(=O)NC3CCC(C(c4cccc(F)c4)N(C)C)CC3)C2)c(C)c1` (stereo not drawn) [Example 140, N-(4-((dimethylamino)(3-fluorophenyl)methyl)cyclohexyl)-2-(1-(mesitylsulfonyl)pyrrolidin-3-yloxy)acetamide], for which the inhibition at 10 µM was 72%.

`COc1ccc(S(=O)(=O)N2CCC(OCC(=O)NCC3CCC(C(c4cccs4)N(C)C)CC3)C2)cc1OC` (stereo not drawn) [Example 23, 2-(1-(3,4-dimethoxyphenylsulfonyl)pyrrolidin-3-yloxy)-N-((4-((dimethylamino)(thiophen-2-yl)methyl)cyclohexyl)methyl)acetamide]: the inhibition at 10 µM came out at 82%.

Take `CN(C)C(c1cccc(F)c1)C1CCC(CCNC(=O)COCCN(C)S(=O)(=O)c2cccc(C(F)(F)F)c2)CC1` (stereo not drawn) [Example 192, N-(2-(4-((dimethylamino)(3-fluorophenyl)methyl)cyclohexyl)ethyl)-2-(2-(N-methyl-3-(trifluoromethyl)phenylsulfonamido)ethoxy)acetamide]: the inhibition at 10 µM came to 94%.

As to `CCN(CCOCC(=O)NCC1CCC(C(c2cccs2)N(C)C)CC1)S(=O)(=O)c1c(C)cc(OC)c(C)c1C` (stereo not drawn) [Example 16, N-((4-((dimethylamino)(thiophen-2-yl)methyl)cyclohexyl)methyl)-2-(2-(N-ethyl-4-methoxy-2,3,6-trimethylphenylsulfonamido)ethoxy)acetamide], the inhibition at 10 µM came to 98%.

Turning to `CN(C)C(c1cccc(F)c1)C1CCC(CCNC(=O)COCC2CCCCN2S(=O)(=O)c2ccc(Cl)c(Cl)c2)CC1` (stereo not drawn) [Example 147, 2-((1-(3,4-dichlorophenylsulfonyl)piperidin-2-yl)methoxy)-N-(2-(4-((dimethylamino)(3-fluorophenyl)methyl)cyclohexyl)ethyl)acetamide], the inhibition at 10 µM stood at 96%.

For `CN(C)C(c1cccc(F)c1)C1CCC(NC(=O)COC2CCN(S(=O)(=O)c3ccc(F)cc3)C2)CC1` (stereo not drawn) [Example 172, N-(4-((dimethylamino)(3-fluorophenyl)methyl)cyclohexyl)-2-(1-(4-fluorophenylsulfonyl)pyrrolidin-3-yloxy)acetamide], the inhibition at 10 µM amounted to 79%.

`CN(C)C(c1cccs1)C1CCC(NC(=O)COCCN(C)S(=O)(=O)c2ccc(F)cc2)CC1` (stereo not drawn) [Example 10, N-(4-((dimethylamino)(thiophen-2-yl)methyl)cyclohexyl)-2-(2-(4-fluoro-N-methylphenylsulfonamido)ethoxy)acetamide]: the inhibition at 10 µM came to 76%.

Consider `COc1ccc(S(=O)(=O)N(C)CCOCC(=O)NCC2CCC(C(c3cccs3)N(C)C)CC2)cc1` (stereo not drawn) [Example 142, N-((4-((dimethylamino)(thiophen-2-yl)methyl)cyclohexyl)methyl)-2-(2-(4-methoxy-N-methylphenylsulfonamido)ethoxy)acetamide], for which the inhibition at 10 µM came to 70%.

Take `CN(C)C(c1cccc(F)c1)C1CCC(NC(=O)COCCN(Cc2ccccc2)S(=O)(=O)c2ccccc2)CC1` (stereo not drawn) [Example 175, 2-(2-(N-benzylphenylsulfonamido)ethoxy)-N-(4-((dimethylamino)(3-fluorophenyl)methyl)cyclohexyl)acetamide]: the inhibition at 10 µM worked out at 97%.

Consider `CN(C)C(c1cccc(F)c1)C1CCC(CCNC(=O)COCCN(C)S(=O)(=O)c2ccc(Cl)cc2)CC1` (stereo not drawn) [Example 186, 2-(2-(4-chloro-N-methylphenylsulfonamido)ethoxy)-N-(2-(4-((dimethylamino)(3-fluorophenyl)methyl)cyclohexyl)ethyl)acetamide], for which the inhibition at 10 µM amounted to 88%.

For the compound `COc1cc(C)c(S(=O)(=O)N(C)CCOCC(=O)NCCC2CCC(C(c3cccc(F)c3)N(C)C)CC2)c(C)c1C` (stereo not drawn) [Example 183, N-(2-(4-((dimethylamino)(3-fluorophenyl)methyl)cyclohexyl)ethyl)-2-(2-(4-methoxy-N,2,3,6-tetramethylphenylsulfonamido)ethoxy)acetamide], the inhibition at 10 µM was 93%.

As to `COc1ccc(S(=O)(=O)N2CCCCC2COCC(=O)NCC2CCC(C(c3ccccc3)N(C)C)CC2)cc1OC` (stereo not drawn) [Example 150, 2-((1-(3,4-Dimethoxyphenylsulfonyl)piperidin-2-yl)methoxy)-N-((4-((dimethylamino)(phenyl)methyl)cyclohexyl)methyl)acetamide], the inhibition at 10 µM was found to be 94%.

With `COc1cc(C)c(S(=O)(=O)N2CCC(OCC(=O)NCC3CCC(C(c4ccccc4)N(C)C)CC3)C2)c(C)c1` (stereo not drawn) [Example 173, N-((4-((dimethylamino)(phenyl)methyl)cyclohexyl)methyl)-2-(1-(4-methoxy-2,6-dimethylphenylsulfonyl)pyrrolidin-3-yloxy)acetamide], the inhibition at 10 µM is 95%.

For the compound `CN(C)C(c1cccs1)C1CCC(CCNC(=O)COCCN(C)S(=O)(=O)c2ccc(Cl)cc2Cl)CC1` (stereo not drawn) [Example 9, 2-(2-(2,4-dichloro-N-methylphenylsulfonamido)ethoxy)-N-(2-(4-((dimethylamino) (thiophen-2-yl)methyl)cyclohexyl)ethyl)acetamide], the inhibition at 10 µM is 91%.

Consider `COc1cc(C)c(S(=O)(=O)N2CCC(OCC(=O)NCCC3CCC(C(c4cccs4)N(C)C)CC3)C2)c(C)c1` (stereo not drawn) [Example 199, N-(2-(4-((dimethylamino)(thiophen-2-yl)methyl)cyclohexyl)ethyl)-2-(1-(4-methoxy-2,6-dimethylphenylsulfonyl)pyrrolidin-3-yloxy)acetamide], for which the inhibition at 10 µM amounted to 96%.

For the compound `CN(C)C(c1cccs1)C1CCC(CCNC(=O)COC2CCN(S(=O)(=O)c3ccc(Cl)cc3Cl)C2)CC1` (stereo not drawn) [Example 21, 2-(1-(2,4-dichlorophenylsulfonyl)pyrrolidin-3-yloxy)-N-(2-(4-((dimethylamino)(thiophen-2-yl)methyl)cyclohexyl)ethyl)acetamide], the inhibition at 10 µM was 94%.

For the compound `CN(C)C(c1cccs1)C1CCC(NC(=O)COC2CCN(S(=O)(=O)c3cccc(C(F)(F)F)c3)C2)CC1` (stereo not drawn) [Example 11, N-(4-((dimethylamino)(thiophen-2-yl)methyl)cyclohexyl)-2-(1-(3-(trifluoromethyl)phenylsulfonyl)pyrrolidin-3-yloxy)acetamide], the inhibition at 10 µM is 86%.

`CN(C)C(c1ccccc1)C1CCC(CNC(=O)COC2CCN(S(=O)(=O)c3ccccc3)C2)CC1` (stereo not drawn) [Example 195, N-((4-((dimethylamino)(phenyl)methyl)cyclohexyl)methyl)-2-(1-(phenylsulfonyl)pyrrolidin-3-yloxy)acetamide]: the inhibition at 10 µM was found to be 101%.
